Measurements from patent US20190211317A1, “PEPTIDES AND NANOPARTICLES FOR INTRACELLULAR DELIVERY OF GENOME-EDITING MOLECULES” (Aadigen, LLC, priority 2016, published 2019).
Where “and” joins values, the source holds several entries; their conditions need not be identical. Identical values can stand only once.

Legend:
[1] = test system: endogenous hPD1 gene in JURKAT and K562 cells; experiment: hPD1 gene editing in T cell lines (T7E1 assay); format: cell-based, human
Protocol: CAS9 protein was preloaded with purified sgRNA at a molar ratio of 1:1 and incubated for 10 min prior to forming complexes with peptides.
5×10^6 cells were washed twice with DPBS by centrifuging at 800 rpm for 5 minutes and resuspended in 100 ^l transfection buffer, and then transferred into the electroporation cuvette. An optimized program selected for both high transfection and high efficiency on T cells was used. After electroporation, cells were resuspended in 500 ^l pre-warmed AIM-V medium containing 10% FBS and incubated at 37° C. in 5% CO2. The transfection efficiency was evaluated after 48 hr by flow cytometry or T7E1 assay.
RNAiMAX delivery method was used as positive control. Cells were either resuspended in or overlaid with 100 μl of preformed complexes, incubated for 3-5 min, and then 300 μl of DMEM was added. […] The indel frequency in the hPD1 gene was quantified using the T7E1 assay.

[2] = test system: hPD1 gene in human T cells; experiment: hPD1 gene editing in primary human T cells (T7E1 assay); format: cell-based
Protocol: T cells were isolated from PBMCs (2 different donors) using anti-CD3/anti-CD28 antibodies bound to paramagnetic beads (Dynabeads ClinExVivo CD3/CD28, Invitrogen) at a ratio of 3:1 (beads:cells). The cells and beads were co-incubated for 2 hours at room temperature and CD3′ cell enrichment was performed using Dynal ClinExVIVO MPC magnet (Thermo Fisher). The anti-CD3/anti-CD28 paramagnetic beads were removed, washed and concentrated. Cells in the CD3′ fraction were resuspended in activation media at a concentration of 1×10^6 cells/ml with AIM-V medium (Thermo Fishers) supplemented with 10% fetal calf serum, 300 IU/ml IL2 and 50 ng/ml OKT3 (MuromonAB-CD3) for two days.
Cells were transfected by electroporation with CD-19 plasmid or gRNA/CAS9 (5 μg/10 μg) using a Nucleofector 2b (Lonza, Germany) with the Amaxa Human T cells Nucleofector Kit, VPA-1002 (Lonza, Germany). 5×10^6 cells were washed twice with DPBS by centrifuging at 800 rpm for 5 minutes and resuspended in 100 ^l transfection buffer, and then transferred into the electroporation cuvette. An optimized program selected for both high transfection and high efficiency on T cells was used. After electroporation, cells were resuspended in 500 ^l pre-warmed AIM-V medium containing 10% FBS and incubated at 37° C. in 5% CO2. The transfection efficiency was evaluated after 48 hr by flow cytometry or T7E1 assay.
As control, CAS9 loaded with gRNA targeting GFP was used.
Cells were returned to the incubator for 72 hours. CAS9-induced double-strand break followed by repair through non-homologous end joining (NHEJ) was analyzed by either the T7E1 assay or using the Genome Cleavage Detection kit (GCD Thermo Fisher) and quantified using Fragment Analyzer System. The indel frequency in the target gene was quantified using the T7E1 assay. The cultures were expanded and analyzed for viability and PD1 levels every 10 days. T cell expansion medium contained AIM V medium, supplemented with 5% heat-inactivated human AB Serum, 1% Gluta-Max, and 300 IU/mL IL-2.

[3] = test system: hPD1 gene in human T cells; experiment: Simultaneous delivery of CAR plasmid and CAS9/gRNA: hPD1 editing (T7E1); format: cell-based; conditions: for mean indel frequency: two donors
Protocol: Cells were incubated for 5 min, then 300 μl of serum free RPMI-1640 medium was added. After 30 min, 1.2 mL of full medium was added and serum level was adjusted to 10%. As control, CAS9 loaded with gRNA targeting GFP was used. For comparison with electroporation methods, cells were transfected with the anti-CD-19 CAR plasmid (5 μg) and gRNA/CAS9 (5 μg/10 μg) using Nucleofector 2b (Lonza, Germany) with the Amaxa Human T cells Nucleofector Kit, VPA-1002 (Lonza, Germany).
On day 5, the level of transduced and untransduced cells was analyzed, and cells were transferred to fresh T cell expansion medium. The cultures were analyzed for viability and anti-CD19 CAR expression by flow cytometry. The expression of the anti-CD19 CAR in the T cells was evaluated by flow cytometry using a Protein L assay. […] 7-AAD (Sigma) was used to determine viability. CAS9-induced double-strand break followed by repair through NHEJ system was analyzed by either the T7E1 assay or using the Genome Cleavage Detection kit (GCD Thermo Fisher) and quantified using Fragment Analyzer System. The indel frequency in the target gene was quantified using the T7E1 assay. The cultures were expanded and analyzed for viability, anti-CD19 expression and PD I level every 10 days. T cell expansion medium contained AIM V medium, supplemented with 5% heat-inactivated human AB Serum, 1% Gluta-Max, and 300 IU/mL IL-2.

JURKAT and K562 cells = experiment: Toxicity of CPP/CAS9/gRNA complexes in T cell lines (MTT assay); format: cell-based, human; conditions: up to 100 nM, 24 h
Protocol: A total of 30,000 JURKAT or K562 cells seeded in 24-well plates the day prior to transfection were incubated with increasing concentrations of CPP/CAS9/gRNA complexed at 20:1 molar ratio (CPP to CAS9/gRNA) ranging from 1 nM to 200 nM for 30 min prior to addition of medium to reach a final 10% concentration of FCS. Cytotoxic response was measured 24 hours later by colorimetric MTT assay (Sigma, Germany). For MTT assay, cell culture medium was removed and replaced with PBS containing 2.5 mg/ml of MTT for 4 hours. Results correspond to the average of 3 independent experiments.

[4] = test system: HPRT gene in mouse muscle myoblast cells (C2C12); experiment: HPRT gene editing in C2C12 myoblasts (T7E1 assay); format: cell-based
Protocol: (§1) […] Delivery by RNAiMAX was included as a positive control.
(§2) CAS9-induced NHEJ was analyzed 72 hours after transfection by PCR (FIG. 26) and T7E1 assay (FIG. 27). The deletion (indel) frequencies in the HPRT gene were quantified using a T7E1 assay by quantifying the amount of uncut vs cut DNA using a Fragment Analyzer System. Data for on-target mutations induced by RGEN/gRNA are reported as an average of 3 separate experiments
(§3) The cell line was maintained in 5% CO2 at 37° C. and cell viability was assessed by the Trypan Blue exclusion test. To induce myogenic differentiation, at about 80% cell confluence the medium containing 10% fetal calf serum was substituted with medium containing 1% fetal calf serum. The cells were transfected at the undifferentiated stage or at day 7 after differentiation.

[5] = test system: E-Catenin gene in mouse muscle myoblast cells (C2C12); experiment: ü-Catenin gene disruption in C2C12 myoblasts (PCR gel); format: cell-based; conditions: undifferentiated and differentiated C2C12
Protocol: Cells were transfected with CAS9/gRNA (2.5 μM/5 μM) complexes associated with CPP (+) or not (−) at a molar ratio of 20:1 (peptide to complex) and compared to delivery by RNAiMAX for E-Catenin expression. ü-actin expression was included as a loading control.
as §1, §2, §3

[6] = test system: U2OS, HEPG2, K562 cells and primary human fibroblasts; experiment: CAS9 protein expression after CPP delivery of CAS9 mRNA (ELISA); format: cell-based; conditions: day 3; cell types not specified
Protocol: CPP/CAS9 mRNA complexes were formed by mixing the CAS9 mRNA (0.5 μg) with CPP at a 20:1 molar ratio of CPP:CAS9 mRNA and incubating for 30 min at 37° C. prior to cell transfection. Cells were transfected according to optimized protocols for either adherent or suspension cell lines.
Human primary fibroblasts were freshly obtained and grown in flasks pre-coated with a gelatin-based coating solution and incubated in Culture Complete Growth Medium for 3 days before expansion and treatment. U2OS cells were cultured in Dulbecco's Modified Eagle's Medium (DMEM), supplemented with 2 mM glutamine, 1% antibiotics (streptomycin 10,000 μg/mL, penicillin, 10,000 IU/mL) and 10% (w/v) foetal calf serum (FCS), at 37° C. in a humidified atmosphere containing 5% CO2. 35 mm dishes seeded with 150,000 cells the day prior to transfection were grown to 50-60% confluence and set up to be at about 70% confluences at the time of transfection. Before transfection, cells were washed with DMEM (2×) followed by PBS (1×). Cells were then overlaid with 0.2 ml of complex solution (16 μl CPP/Cargo complex in water+184 μl OPTiMEM without antibiotics), mixed gently, and incubated for 10 min at 37° C. 0.8 mL of fresh OPTiMEM or DMEM was then added and cells were incubated for 20 min at 37° C. 2 mL of complete OPTiMEM (high glucose) or DMEM containing 11.4% FCS was then added in order to reach a final FCS concentration of 10%, without removing the overlay of CPP/Cargo complexes. Cells were returned to the incubator (37° C., 5% CO2) and assayed at 72 hours post transfection.
K562 and HEpG2 cells were set up to be at about 70% confluence at the time of transfection. The cells were maintained in high glucose DMEM media with 10% serum. Before transfection, cells were harvested by centrifugation, then washed with DMEM (2×) followed by PBS (1×). Cells were then resuspended in 0.2 ml of complex solution (16 μl CPP/Cargo complex in water+184 μl OPTiMEM without antibiotics), mixed gently, and incubated for 10 min at 37° C. 0.8 mL of fresh OPTiMEM was then added and cells were incubated for 20 min at 37° C. 2 mL of complete OPTiMEM (high glucose) containing 11.4% FCS was then added in order to reach a final FCS concentration of 10%, without removing the overlay of CPP/Cargo complexes. Cells were returned to the incubator (37° C., 5% CO2) and assayed at 72 hours post transfection.
RNAiMAX lipid-based delivery (Invitrogen Thermo Fisher France) was used as a control and transfections were performed following the manufacturer's instructions. CAS9 expression level was analyzed at multiple time points over a period of 10 days as determined by ELISA on protein extracts using antibodies against CRISPR/Cas9 obtained from Diagenode (Diagenode cat. No. C15200223) and ABCAM (clone 7A9-ab191468).

[7] = test system: U2OS and HEPG2 cell lines and primary human fibroblasts; experiment: CAS9 protein expression after CPP delivery of CAS9-expressing plasmid (ELISA); format: cell-based; conditions: U2OS, HEPG2, primary human fibroblasts; day 6; plasmid 0.5 μg
Protocol: CPP/plasmid complexes were prepared by mixing 0.5 μg of a CAS9-expressing plasmid (Addgene MLM3639-Plasmid #42252) with CPP at a 20:1 molar ratio of CPP:cargo and incubating for 30 min at 37° C. prior to cell transfection. Cells were transfected according to the protocols for adherent and suspension cells described in Example 13a. Lipofectamine 2000 was used as lipid-based delivery control. CAS9 protein expression level was analyzed at multiple time points over a period of 10 days as determined by ELISA on protein extracts using antibodies against CRISPR/Cas9 obtained from Diagenode (Diagenode cat. No. C15200223) and ABCAM (clone 7A9-ab191468).

primary human T cells = experiment: CAS9 protein expression in primary human T cells after CAS9 mRNA or plasmid delivery (ELISA); format: cell-based; conditions: day 3
Protocol: T cells were isolated from PBMCs using anti-CD3/anti-CD28 antibodies bound to paramagnetic beads (Dynabeads ClinExVivo CD3/CD28, Invitrogen) at a ratio of 3:1 (beads:cells). The cells and beads were co-incubated for 2 hours at room temperature and CD3^+ cell enrichment was performed using Dynal ClinExVIVO MPC magnet (Thermo Fisher). The anti-CD3/anti-CD28 paramagnetic beads were removed, washed and concentrated. Cells in the CD3^+ fraction were resuspended in activation media at a concentration of 1×10^6 cells/ml with AIM-V medium (Thermo Fishers) supplemented with 10% fetal calf serum, 300 IU/ml IL2 and 50 ng/ml OKT3 (MuromonAB-CD3) for two days.
CPP/CAS9 complexes were formed by mixing the CAS9 mRNA (0.5 μg) with CPP at a 20:1 molar ratio of CPP:CAS9 mRNA and incubating for 30 min at 37° C. prior to cell transfection. CPP/CAS9-expressing plasmid complexes were formed by mixing the CAS9-expressing plasmid (Addgene MLM3639-Plasmid #42252) (0.5 μg) with CPP at a 20:1 molar ratio of CPP:plasmid and incubating for 30 min at 37° C. prior to cell transfection.
Cells were transfected according to the protocol for suspension cells described in Example 13a. RNAiMAX and lipofectamine 2000 lipid-based delivery methods (Invitrogen Thermo Fisher France) were used as controls, and transfections were performed following the manufacturer's instructions. CAS9 protein expression level was analyzed at multiple time points over a period of 10 days as determine by ELISA on protein extracts using antibodies against CRISPR/Cas9 obtained from Diagenode (Diagenode cat. No. C15200223) and ABCAM (clone 7A9-ab191468).

[8] = Particle size, polydispersity and zeta potential with different cargoes (Zetasizer NANO ZS P); format: physicochemical; conditions: 20:1
Protocol: The CPP/CAS9-protein, CPP/CAS9-protein/sgRNA, CPP/CAS9-mRNA, CPP/CAS-mRNA/sgRNA particles were characterized; the mean size, polydispersity, and zeta potential were measured with a Zetasizer NANO ZS P apparatus (Malvern Ltd).
The mean size and the polydispersity of the CCP/cargo complexes were determined at 25° C. for 5 min per measurement and zeta potential was measured with a Zetasizer NANO ZS P apparatus (Malvern Ltd).

Swiss mice = conditions: CAS9 protein 5 μg/VEPEP-3a 20:1; single i.v.; 12-72 hr
Protocol: Free CAS9 protein in physiological buffer was injected as a negative control, and administration of LPS was used as a positive control for cytokine activation. […] Serum cytokine levels were measured using The Cytokine Mouse Magnetic 20-Plex Panel from Invritrogen (LMC 0006M).

[9] = Donor 1, CAS9/sgRNA 2.5 μg/5 μg
[10] = Donor 2, CAS9/sgRNA 2.5 μg/5 μg

Protocol for Primary T cells: The toxicity of CPP/CAS9/gRNA complexes was investigated in the two cell lines (JURKAT and K562) and in PBMC-isolated T cells. Cell viability was determined using either MTT assay or 7-AAD.
Data were normalized to untransfected cells and compared to T cells incubated with free CAS9/gRNA.

N=C(N)NCCC[C@H](NC(=O)[C@H](CCCNC(=N)N)NC(=O)[C@H](CCCCN)NC(=O)[C@H](CCCNC(=N)N)NC(=O)[C@@H]1CCCN1C(=O)[C@H](Cc1c[nH]c2ccccc12)NC(=O)[C@H](CCC(=O)O)NC(=O)[C@H](CCCNC(=N)N)NC(=O)[C@H](Cc1ccccc1)NC(=O)[C@H](Cc1c[nH]c2ccccc12)NC(=O)[C@H](CCCNC(=N)N)NC(=O)[C@H](CCC(=O)O)NC(=O)[C@H](Cc1ccccc1)NC(=O)[C@H](Cc1c[nH]c2ccccc12)NC(=O)[C@H](CCCCN)NC(=O)CCN)C(=O)O [VEPEP-3a]
Mean indel Frequency ± s.e.m ([1]; JURKAT, CAS9/sgRNA 2.5 μg/5 μg): 72 ± 5% | Mean indel Frequency ± s.e.m ([1]; JURKAT, CAS9/sgRNA 5 μg/10 μg): 78% and 78 ± 7% | Mean indel Frequency ± s.e.m ([1]; K562, CAS9/sgRNA 2.5 μg/5 μg): 71 ± 6% | Mean indel Frequency ± s.e.m ([1]; K562, CAS9/sgRNA 5 μg/10 μg): 75% and 75 ± 6% | Mean indel Frequency ± s.e.m [2, 9]: 62 ± 5% | Mean indel Frequency ± s.e.m ([2]; Donor 1, CAS9/sgRNA 5 μg/10 μg): 65 ± 5% | Mean indel Frequency ± s.e.m [2, 10]: 67 ± 8% | Mean indel Frequency ± s.e.m ([2]; Donor 2, CAS9/sgRNA 5 μg/10 μg): 70 ± 5% | mean indel frequency of hPD1 gene ([2]; T cells from the two donors, 5 μg/10 μg CAS9/gRNA): 66% | Mean indel Frequency ± s.e.m [3, 9]: 51 ± 5% | Mean indel Frequency ± s.e.m ([3]; Donor 1, CAS9/sgRNA 5 μg/10 μg): 57 ± 2% | Mean indel Frequency ± s.e.m [3, 10]: 53 ± 5% | Mean indel Frequency ± s.e.m ([3]; Donor 2, CAS9/sgRNA 5 μg/10 μg): 58 ± 8% | mean indel frequency ([3]; 2.5 μg/5 μg CAS9/gRNA): approximately 50% | mean indel frequency ([3]; 5 μg/10 μg CAS9/gRNA): ~57% | toxicity (JURKAT and K562 cells): no toxicity | mean indel frequency ([4]; differentiated C2C12): 73% | mean indel frequency ([4]; undifferentiated C2C12, 5 μg/10 μg CAS9/gRNA, 20:1): 81% | editing of ü-Catenin and HPRT genes [5]: robust editing | ELISA signal for CAS9 protein expression [6]: little to no increase | ELISA signal for CAS9 protein expression [7]: little to no increase | ELISA signal for CAS9 protein expression (primary human T cells; CAS9-expressing plasmid 0.5 μg): little to no CAS9 expression | ELISA signal for CAS9 protein expression (primary human T cells; CAS9 mRNA 0.5 μg): little to no CAS9 expression | formation of stable nanoparticles ([8]; with CAS9-protein and CAS9-protein/gRNA complex): able to form stable nanoparticles | Mean diameter ([8]; with CAS9-protein and CAS9-protein/gRNA): about 60 nm | average viability (Primary T cells): ≥ 80% | non-specific cytokine induction (Swiss mice): little to no impact
